Test results taken from patent US8575163B2, “Pyrrolopyridinylpyrimidin-2-ylamine derivatives” (Merck Patent GmbH, priority 2009, dated 2013).
Like-named read-outs stand apart in the source and are kept apart here.

What was measured:
[1] = test system: PDK1 kinase activity (phospho-T308-PKB) in PC3 cells; assay: Cellular testing of PDK1 kinase inhibitors in PC3 cells (Luminex, phospho-T308-PKB); type: cell-based; details: 30 min incubation, serum-free, read-out: IC50 PC3 cells [P-PKB T308]
Procedure: Method for the Cellular Testing of PDK1 Kinase Inhibitors in PC3 Cells.
The cellular assay for the determination of the PDK1 kinase activity is carried out as a Luminex assay in the 96-well format. PC3 cells are shown at 20,000 cells per well in 100 μl of medium (45% of […]/45% of Ham's F12/10% of FCS) and incubated on the following day for 30 min with a serial dilution of the test substance (7 concentrations) under serum-free conditions. The cells are subsequently lysed using 90 μl of lysis buffer (20 mM tris/HCl pH 8.0, 150 mM NaCl, 1% of NP40, 10% of glycerol, 1% of phosphatase inhibitor I, 1% of phosphatase inhibitor II, 0.1% of protease inhibitor cocktail III, 0.01% of benzonase) per well, and the lysates are separated off from insoluble cell constituents by means of centrifugation through a 96-well filter plate (0.65 μm). The lysates are incubated overnight at 4° C. with shaking with Luminex beads to which an anti-total PKB antibody is coupled. The detection is carried out on the following day by addition of a phospho-T308-PKB antibody and a species-specific peroxidase-labelled secondary antibody. The detection of phospho-T308-PKB is carried out by measurement in a Luminex100 instrument by determination of 100 events per cavity in a measurement time of 60 sec. As pharmacological blank, the signals obtained from cells which have been treated with 10 μM staurosporin are subtracted from all other batches. The control value used for maximum phosphorylation of PKB on T308 are the signals from cells which have only been treated with the solvent (0.3% of DMSO). The values of the batches treated with test substance are calculated therefrom as percentage of control, and IC50 values are determined by means of RS1.

PDK1 = biological target: T1, PDK1 (Homo sapiens, UniProt O15530); assay: Test for the inhibition of PDK1 (flashplate, 33P-ATP); type: biochemical; details: His6-PDK1 3.4 nM, 4 μM ATP, 30° C., 60 min
T1 construct: His6 (N)
T1 sequence (O15530 51-556 limits assumed): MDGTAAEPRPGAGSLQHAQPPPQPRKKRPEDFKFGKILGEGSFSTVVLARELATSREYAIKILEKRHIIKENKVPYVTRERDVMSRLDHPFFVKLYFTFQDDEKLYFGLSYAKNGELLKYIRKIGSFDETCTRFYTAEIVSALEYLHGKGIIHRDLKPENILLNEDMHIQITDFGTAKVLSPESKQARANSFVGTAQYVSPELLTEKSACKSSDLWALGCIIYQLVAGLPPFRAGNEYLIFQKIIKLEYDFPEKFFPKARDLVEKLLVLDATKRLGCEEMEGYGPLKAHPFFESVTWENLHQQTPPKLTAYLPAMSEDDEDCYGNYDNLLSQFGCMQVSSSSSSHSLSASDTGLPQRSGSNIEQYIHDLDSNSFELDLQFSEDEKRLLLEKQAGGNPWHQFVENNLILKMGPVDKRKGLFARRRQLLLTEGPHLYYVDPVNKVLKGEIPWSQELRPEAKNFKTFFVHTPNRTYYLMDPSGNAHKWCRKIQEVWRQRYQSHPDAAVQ
In short: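 His6-PDK1(1-50) (3.4 nM) and a biotinylated peptide substrate (400 nM) were incubated 60 min at 30° C with 4 μM ATP containing ^33P-ATP and test compound. Incorporated radioactivity was counted after subtracting a 100 nM staurosporine blank and expressed as % of control; IC50 derived from these.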

IC50 ([1]; Homo sapiens, PC-3, 0.5 h)	IC50 (PDK1)	IC50 [1]	SMILES
980 nM	3.4 nM		Cn1cc(-c2cnc3[nH]cc(-c4cc(C(C)(O)c5ccncc5)nc(N)n4)c3c2)cn1 (single isomer, unassigned) [A41, 1-{2-amino-6-[5-(1-methyl-1H-pyrazol-4-yl)-1H-pyrrolo[2,3-b]pyridin-3-yl]-pyrimidin-4-yl}-1-pyridin-4-ylethanol]
	3.2 nM	950 nM	Cn1cc(-c2cnc3[nH]cc(-c4cc(C(C)(O)c5ccncc5)nc(N)n4)c3c2)cn1 (single isomer, unassigned) [A42, 1-{2-amino-6-[5-(1-methyl-1H-pyrazol-4-yl)-1H-pyrrolo[2,3-b]pyridin-3-yl]-pyrimidin-4-yl}-1-pyridin-4-ylethanol]
348 nM	8 nM		CC[C@](O)(c1ccncc1)c1cc(-c2c[nH]c3ncc(-c4cnn(CC(=O)N5CCCCC5)c4)cc23)nc(N)n1 (single isomer, unassigned) [A45]
61 nM	10 nM		Cn1cc(-c2cnc3[nH]cc(-c4cc(C(C)(O)c5ccccc5F)nc(N)n4)c3c2)cn1 (single isomer, unassigned) [A103, 1-{2-amino-6-[5-(1-methyl-1H-pyrazol-4-yl)-1H-pyrrolo[2,3-b]pyridin-3-yl]-pyrimidin-4-yl}-1-(2-fluorophenyl)ethanol]
	16 nM	41 nM	Cn1cc(-c2cnc3[nH]cc(-c4cc(C(C)(O)c5ccccc5F)nc(N)n4)c3c2)cn1 (single isomer, unassigned) [A104, 1-{2-amino-6-[5-(1-methyl-1H-pyrazol-4-yl)-1H-pyrrolo[2,3-b]pyridin-3-yl]-pyrimidin-4-yl}-1-(2-fluorophenyl)ethanol]
18 nM	48 nM		CC[C@@](O)(c1ccc(F)cc1)c1cc(-c2c[nH]c3ncc(-c4cnn(C)c4)cc23)nc(N)n1 (single isomer, unassigned) [A121]
18 nM	71 nM		CC[C@](O)(c1ccc(F)cc1)c1cc(-c2c[nH]c3ncc(-c4cnn(C)c4)cc23)nc(N)n1 (single isomer, unassigned) [A122]
250 nM	78 nM		Cn1cc(-c2cnc3[nH]cc(-c4cc([C@@](O)(c5ccccc5)C(F)(F)F)nc(N)n4)c3c2)cn1 (single isomer, unassigned) [A123]
48 nM	170 nM		Cn1cc(-c2cnc3[nH]cc(-c4cc([C@](O)(c5ccccc5)C(F)(F)F)nc(N)n4)c3c2)cn1 (single isomer, unassigned) [A124]
14 nM	7.9 nM		CC[C@](O)(c1cc(-c2c[nH]c3ncc(-c4cnn(C)c4)cc23)nc(N)n1)c1cccc(F)c1F (single isomer, unassigned) [A125]
2 nM	66 nM		CC[C@@](O)(c1cc(-c2c[nH]c3ncc(-c4cnn(C)c4)cc23)nc(N)n1)c1cccc(F)c1F (single isomer, unassigned) [A126]
11 nM	28 nM		CC(C)[C@@](O)(c1ccccc1)c1cc(-c2c[nH]c3ncc(-c4cnn(C)c4)cc23)nc(N)n1 (single isomer, unassigned) [A127]
470 nM	260 nM		CC(C)[C@](O)(c1ccccc1)c1cc(-c2c[nH]c3ncc(-c4cnn(C)c4)cc23)nc(N)n1 (single isomer, unassigned) [A128]
7 nM	16 nM		CCC[C@@](O)(c1cc(-c2c[nH]c3ncc(-c4cnn(C)c4)cc23)nc(N)n1)c1ccccc1F (single isomer, unassigned) [A129]
18 nM	71 nM		CCC[C@](O)(c1cc(-c2c[nH]c3ncc(-c4cnn(C)c4)cc23)nc(N)n1)c1ccccc1F (single isomer, unassigned) [A130]
11 nM	3.8 nM		CC[C@](O)(c1cc(-c2c[nH]c3ncc(-c4cnn(C)c4)cc23)nc(N)n1)c1ccncc1F (single isomer, unassigned) [A131]

IC50 ([1]; Homo sapiens, PC-3, 0.5 h)	IC50 (PDK1)	IC50 [1]	SMILES
140 nM	32 nM		CC[C@@](O)(c1cc(-c2c[nH]c3ncc(-c4cnn(C)c4)cc23)nc(N)n1)c1ccncc1F (single isomer, unassigned) [A132]
1900 nM	48 nM		CCC[C@](O)(c1ccncc1)c1cc(-c2c[nH]c3ncc(-c4cnn(C)c4)cc23)nc(N)n1 (single isomer, unassigned) [A133]
280 nM	4.1 nM		CCC[C@@](O)(c1ccncc1)c1cc(-c2c[nH]c3ncc(-c4cnn(C)c4)cc23)nc(N)n1 (single isomer, unassigned) [A134]
34 nM	6.9 nM		CC[C@](O)(c1ccccc1)c1cc(-c2c[nH]c3ncc(-c4cnn(CC(=O)N5CCCCC5)c4)cc23)nc(N)n1 (single isomer, unassigned) [A135]
870 nM	210 nM		CC[C@@](O)(c1ccccc1)c1cc(-c2c[nH]c3ncc(-c4cnn(CC(=O)N5CCCCC5)c4)cc23)nc(N)n1 (single isomer, unassigned) [A136]
14 nM	28 nM		Cn1cc(-c2cnc3[nH]cc(-c4cc([C@@](C)(O)c5cccc(Cl)c5F)nc(N)n4)c3c2)cn1 (single isomer, unassigned) [A137]
8900 nM	39 nM		Cn1cc(-c2cnc3[nH]cc(-c4cc([C@](C)(O)c5cccc(Cl)c5F)nc(N)n4)c3c2)cn1 (single isomer, unassigned) [A138]
7000 nM	210 nM		COCO[C@](C)(c1ccncc1)c1cc(-c2c[nH]c3ncc(Br)cc23)nc(N)n1 (single isomer, unassigned) [A139]
8900 nM	220 nM		COCO[C@@](C)(c1ccncc1)c1cc(-c2c[nH]c3ncc(Br)cc23)nc(N)n1 (single isomer, unassigned) [A140]
1200 nM	530 nM		CC(O)(c1ccccc1)c1cc(-c2c[nH]c3ncc(-c4cnn(C5CCNCC5)c4)cc23)nc(N)n1 (stereo not drawn) [A13, 1-{2-amino-6-[5-(1-piperidin-4-yl-1H-pyrazol-4-yl)-1H-pyrrolo[2,3-b]pyridin-3-yl]pyrimidin-4-yl}-1-phenylethanol]
69 nM	32 nM		COCOC(C)(c1cc(-c2c[nH]c3ncc(-c4cnn(C)c4)cc23)nc(N)n1)c1ccccc1C (stereo not drawn) [A18, 4-(1-methoxymethoxy-1-o-tolylethyl)-6-[5-(1-methyl-1H-pyrazol-4-yl)-1H-pyrrolo[2,3-b]pyridin-3-yl]pyrimidin-2-ylamine]
210 nM	3 nM		CCCC(O)(c1ccncc1)c1cc(-c2c[nH]c3ncc(-c4cnn(C)c4)cc23)nc(N)n1 (stereo not drawn) [A35, 1-{2-amino-6-[5-(1-methyl-1H-pyrazol-4-yl)-1H-pyrrolo[2,3-b]pyridin-3-yl]-pyrimidin-4-yl}-1-pyridin-4-ylbutan-1-ol]
519 nM	4 nM		CCC(O)(c1ccncc1)c1cc(-c2c[nH]c3ncc(-c4cnn(CC(=O)N5CCCCC5)c4)cc23)nc(N)n1 (stereo not drawn) [A50, 2-(4-{3-[2-amino-6-(1-hydroxy-1-pyridin-4-ylpropyl)pyrimidin-4-yl]-1H-pyrrolo[2,3-b]pyridin-5-yl}pyrazol-1-yl)-1-piperidin-1-ylethanone]
	7.8 nM		Cn1cc(-c2cnc3[nH]cc(-c4cc(C(C)(O)c5ccnnc5)nc(N)n4)c3c2)cn1 (stereo not drawn) [A109, 1-{2-amino-6-[5-(1-methyl-1H-pyrazol-4-yl)-1H-pyrrolo[2,3-b]pyridin-3-yl]-pyrimidin-4-yl}-1-pyridazin-4-ylethanol]
	26 nM		Cn1cc(-c2cnc3[nH]cc(-c4cc(C(C)(O)c5ccc(=O)[nH]c5)nc(N)n4)c3c2)cn1 (stereo not drawn) [A111, 5-(1-{2-amino-6-[5-(1-methyl-1H-pyrazol-4-yl)-1H-pyrrolo[2,3-b]pyridin-3-yl]-pyrimidin-4-yl}-1-hydroxyethyl)-1H-pyridin-2-one]
